The target in assay [1] is T1, c-Met receptor tyrosine kinase, GST-c-Met(969-1390) (Homo sapiens, UniProt P08581).
T1 construct: made in house
Put plainly: EPK c-Met profiling assay (LanthaScreen TR-FRET kinase assay). The class given is biochemical. Particulars: 2 μM ATP, 0.3 nM enzyme, 60 minutes at room temperature. Put shortly: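 Recombinant GST-c-Met(969-1390) cytoplasmic domain, 0.3 nM, phosphorylating 50 nM Fluorescein-PolyEAY with 2 μM ATP, 10 mM MgCl2, 3 mM MnCl2, 60 min at room temperature. EDTA-stopped; phosphoproduct detected by TR-FRET with Tb-PY20 antibody, end-point read. Final compound 0.003-10 μM over 8 concentrations.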

Assay [2] has as its target T2, c-Met (Homo sapiens, UniProt P08581).
T2 construct: adapted to measure the phosphorylation of endogenous cellular proteins in cell lysates; endogenous in cells; host or cells: GTL-16
Briefly: GTL-16 c-Met autophosphorylation measured by AlphaScreen detection. Format: cell-based. Particulars: GTL-16 cells, 1 h incubation, AlphaScreen p-c-Met; read-out: GTL-16 IC50 c-Met phosphorylation. The method in brief:
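GTL-16 MET-amplified gastric cancer cells, serum-free DMEM with 0.1% BSA, exposed to 8-point compound dilutions for 1 h at 37° C (0.11% DMSO final). Lysates probed for phospho-c-Met by AlphaScreen using anti-c-Met antibody, biotinylated PY20 phosphotyrosine antibody, Protein A acceptor and streptavidin donor beads.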

This is an account of results in patent US8389526B2, “3-heteroarylmethyl-imidazo[1,2-b]pyridazin-6-yl derivatives” (Novartis AG, priority 2009, dated 2013).

T1 sequence (P08581 969-1390): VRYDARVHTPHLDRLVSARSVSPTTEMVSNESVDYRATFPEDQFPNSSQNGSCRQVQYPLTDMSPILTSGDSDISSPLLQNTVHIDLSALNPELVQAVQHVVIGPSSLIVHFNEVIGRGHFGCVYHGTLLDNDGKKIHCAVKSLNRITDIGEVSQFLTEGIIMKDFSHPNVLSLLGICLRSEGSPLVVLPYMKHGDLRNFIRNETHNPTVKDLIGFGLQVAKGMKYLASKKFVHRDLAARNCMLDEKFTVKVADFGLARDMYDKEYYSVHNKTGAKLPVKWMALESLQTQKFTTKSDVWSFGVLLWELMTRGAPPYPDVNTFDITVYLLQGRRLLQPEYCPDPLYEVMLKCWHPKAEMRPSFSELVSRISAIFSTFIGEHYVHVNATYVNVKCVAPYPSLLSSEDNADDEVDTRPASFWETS
T2 sequence (P08581 25-1390): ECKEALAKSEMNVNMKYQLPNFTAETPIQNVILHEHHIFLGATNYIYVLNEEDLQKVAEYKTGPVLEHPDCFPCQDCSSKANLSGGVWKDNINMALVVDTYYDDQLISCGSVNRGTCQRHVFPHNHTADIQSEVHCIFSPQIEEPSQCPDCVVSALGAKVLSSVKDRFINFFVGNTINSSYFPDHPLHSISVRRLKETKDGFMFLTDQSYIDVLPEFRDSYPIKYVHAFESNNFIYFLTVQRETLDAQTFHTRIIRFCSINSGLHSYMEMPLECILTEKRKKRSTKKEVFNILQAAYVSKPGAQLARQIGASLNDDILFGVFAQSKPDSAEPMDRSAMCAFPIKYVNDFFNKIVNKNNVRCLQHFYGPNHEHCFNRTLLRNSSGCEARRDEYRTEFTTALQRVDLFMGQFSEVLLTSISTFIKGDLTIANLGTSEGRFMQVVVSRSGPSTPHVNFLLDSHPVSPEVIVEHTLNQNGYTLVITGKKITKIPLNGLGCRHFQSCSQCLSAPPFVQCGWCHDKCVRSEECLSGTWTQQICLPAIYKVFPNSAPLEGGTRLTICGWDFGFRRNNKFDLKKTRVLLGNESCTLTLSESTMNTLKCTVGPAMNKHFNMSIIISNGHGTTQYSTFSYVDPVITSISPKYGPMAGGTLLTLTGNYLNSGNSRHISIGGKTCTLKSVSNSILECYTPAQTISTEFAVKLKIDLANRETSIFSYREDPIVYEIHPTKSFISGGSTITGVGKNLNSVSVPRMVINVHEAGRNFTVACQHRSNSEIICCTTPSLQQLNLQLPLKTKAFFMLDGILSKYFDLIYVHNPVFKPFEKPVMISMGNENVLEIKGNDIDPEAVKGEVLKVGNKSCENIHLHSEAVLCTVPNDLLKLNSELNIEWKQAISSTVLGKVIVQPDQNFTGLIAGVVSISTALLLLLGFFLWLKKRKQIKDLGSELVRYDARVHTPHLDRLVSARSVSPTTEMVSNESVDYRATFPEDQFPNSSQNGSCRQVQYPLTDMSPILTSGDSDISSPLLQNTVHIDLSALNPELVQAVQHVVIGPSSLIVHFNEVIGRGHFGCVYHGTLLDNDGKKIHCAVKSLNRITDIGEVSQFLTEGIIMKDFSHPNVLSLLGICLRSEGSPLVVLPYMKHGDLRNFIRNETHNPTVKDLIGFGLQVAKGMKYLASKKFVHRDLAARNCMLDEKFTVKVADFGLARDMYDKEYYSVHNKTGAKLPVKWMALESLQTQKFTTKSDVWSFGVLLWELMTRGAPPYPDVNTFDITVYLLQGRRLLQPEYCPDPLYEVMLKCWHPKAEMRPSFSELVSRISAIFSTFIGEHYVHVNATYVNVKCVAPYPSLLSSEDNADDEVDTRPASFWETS

On to `CC(=O)N1CCN(c2ccc3ncc([C@@H](C)c4c(F)cc5ncccc5c4F)n3n2)CC1` [Example 11, 1-(4-{3-[(S)-1-(5,7-Difluoro-quinolin-6-yl)-ethyl]-imidazo[1,2-b]pyridazin-6-yl}-piperazin-1-yl)ethanone], for which the IC50 in assay [1] turned out to be 3.6 nM; in assay [2], 4.4 nM.

For the compound `C[C@@H](c1c(F)cc2ncccc2c1F)c1cnc2ccc(N3CCN(C)C(=O)C3)nn12` [Example 2, 4-{3-[(S)-1-(5,7-Difluoro-quinolin-6-yl)-ethyl]-imidazo[1,2-b]pyridazin-6-yl}-1-methyl-piperazin-2-one], the IC50 in assay [1] was below 3 nM; in assay [2] it was 2.7 nM.

With `C[C@@H](c1cc2cnn(C)c2cc1F)c1cnc2ccc(N3CCNC(=O)C3)nn12` [Example 28, 4-{3-[(S)-1-(6-Fluoro-1-methyl-1H-indazol-5-yl)-ethyl]-imidazo[1,2-b]pyridazin-6-yl}-piperazin-2-one], the results for the IC50 in assay [1] and in assay [2] were 17 nM and 11 nM, respectively.

For the compound `C[C@@H](c1c(F)cc2ncccc2c1F)c1cnc2ccc(N3CCNC(=O)C3)nn12` (single isomer, unassigned) [Example 5], the IC50 in assay [1] and in assay [2] was below 3 nM throughout.

For `C[C@@H](c1c(F)cc2ncccc2c1F)c1cnc2ccc(N3CCNCC3)nn12` [Example 7, 5,7-Difluoro-6-[(S)-1-(6-piperazin-1-yl-imidazo[1,2-b]pyridazin-3-yl)-ethyl]-quinoline], the IC50 in assay [1] worked out at 4.1 nM; in assay [2], 2.1 nM.
